Experimental data as given in patent publication US8663646B2, “P53 peptide vaccine” (priority 2007, dated 2014).

Tests used:
[1] = target: T1, 20S household proteasomes from human tumor cell line (HeLa) (Homo sapiens, UniProt P28072+P28074+Q99436); assay: In vitro proteasome mediated digestion of 30-mers, mass spectrometry, household proteasome HeLa; assay type: biochemical; details: 30 residue long precursor peptides
T1 construct: 20S household proteasomes were purified from human tumor cell line (HeLa); endogenous in cells; host or cells: HeLa cells; 20S proteasome purified from them
Description: (§1) In the context of the invention, “being inefficiently processed by a proteasome” preferably means that within the first hour of digestion by a proteasome less than 1% of total digested peptide is found. The processing by a proteasome is preferably assessed by incubating a purified proteasome, more preferably a human proteasome with a peptide comprising the potential CTL epitope (30 amino acid length approximately) in a proteasome digestion buffer during at least one hour at 37° C. The reaction is subsequently stopped by adding trifluoroacetic acid. Analysis of the digested peptides is performed with electrospray ionization mass spectrometry (see example 1). Even more preferably, the human proteasome is an immunoproteasome from B-LCL JY cells (Kessler J H et al. 2001).
(§2) 20S immuno-proteasomes were purified from a mouse B-cell line (RMA) and a human B-LCL cell line (JY) and 20S household proteasomes were purified from human tumor cell line (HeLa) as described (Kessler J H et al 2001). To assess kinetics, digestions were performed with different incubation periods as indicated. Briefly, peptides containing the (potential) CTL epitopes (30 mers, 20 μg) were incubated with 1 μg of purified proteasome at 37° C. for 1 h, 4 h and 24 h in 300 μl proteasome digestion buffer, trifluoroacetic acid (30 μl) was added to stop the digestion and samples were stored at −20° C. before mass spectrometric analysis. Electrospray ionization mass spectrometry was performed on a hybrid quadrupole time-of-flight mass spectromter, a Q-TOF (Micromass), equipped with an on-line nanoelectrospray interface with an approximate flow rate of […] as described (Kessler J H et al 2001). The peaks in the mass spectrum were searched in the digested precursor peptide using the Biolynx/proteins software (Micromass) supplied with the mass spectrometer. The intensity of the peaks in the mass spectra was used to establish the relative amounts of peptides generated after proteasome digestion. The relative amounts of the peptides are given as a percentage of the total amount of peptide digested by the proteasome at the indicated incubation time. Major cleavage sites are defined as more than >1% of total digested peptide within the first hour.

HLA-A*1101 [2] = target: T2, HLA-A*1101 (Homo sapiens, UniProt P04439, A114D/D185E/E176A/F33Y/L180Q/S129P/T187R); assay: Stability of peptide-HLA complex, binding at 4° C. and 20° C., HLA-A*1101; details: HLA-A*1101; IC50 at 20° C. vs 4° C.
T2 construct: B-cell lines used are: CAA (A*0101), EKR (A*0301), BVR (A*1101), VIJF (A*2401); endogenous in cells; host or cells: B-cell line BVR
Method in brief: (§3)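 Competition binding used B-cell lines CAA (A*0101), EKR (A*0301), BVR (A*1101) and VIJF (A*2401) against fluorescein-labelled reference peptides. IC50 is the peptide concentration inhibiting 50% of reference binding. Binding was run at 4 °C and 20 °C with IC50 determined at each; complexes losing >50% within 2 hours were deemed unstable.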

HLA-A*0301 [3] = target: T3, HLA-A*0301 (Homo sapiens, UniProt P04439); assay: Competition based cellular binding assay, HLA-A*0301 (B-cell line EKR); details: HLA-A*0301; IC50 category
T3 construct: B-cell lines used are: CAA (A*0101), EKR (A*0301), BVR (A*1101), VIJF (A*2401); endogenous in cells; host or cells: B-cell line EKR

[4] = target: T4, 20S immuno-proteasomes from mouse B-cell line (RMA) (Mus musculus, UniProt O35955+P28063+P28076); assay: In vitro proteasome mediated digestion of 30-mers, mass spectrometry, immunoproteasome RMA; assay type: biochemical; details: 30 residue long precursor peptides
T4 construct: 20S immuno-proteasomes were purified from a mouse B-cell line (RMA); endogenous in cells; host or cells: RMA cells; 20S proteasome purified from them
Description: as §1, §2

HLA-A*1101 [5] = target: T2, HLA-A*1101; assay: Competition based cellular binding assay, HLA-A*1101 (B-cell line BVR); details: HLA-A*1101; IC50 category
HLA-A*0301 [6] = target: T3, HLA-A*0301; assay: Stability of peptide-HLA complex, binding at 4° C. and 20° C., HLA-A*0301; details: HLA-A*0301; IC50 at 20° C. vs 4° C.
Method in brief: as §3

[7] = target: T5, 20S immuno-proteasomes from human B-LCL cell line (JY) (Homo sapiens, UniProt P28062+P28065+P40306); assay: In vitro proteasome mediated digestion of 30-mers, mass spectrometry, immunoproteasome JY; assay type: biochemical; details: 30 residue long precursor peptides
T5 construct: purified from a mouse B-cell line (RMA) and a human B-LCL cell line (JY); endogenous in cells; host or cells: B-LCL JY cells; 20S proteasome purified from them
Description: as §1, §2

HLA-A*2401 [8] = assay: Stability of peptide-HLA complex, binding at 4° C. and 20° C., HLA-A*2401; parameters: species or system human; details: for HLA binding Stability (Table 5): HLA type A24; for Peptide Binding Stability: HLA-A*2401, IC50 at 20° C. vs 4° C.
Description: Stability of other peptide-HLA complexes was preferably determined as follows. […] Peptides of >50% of the initial complexes was lost within 2 hours were considered unstable. […] The rest was designated as unstable peptide binding.
Peptides 8-11 residues in length were selected based on typical anchor residues for HLA-A*0101, A*0301, A*1101 and HLA-A*2401 (Rammensee H G et al). The capacity of peptides to bind was tested in a competition based cellular binding assay as previously described (van der Burg S H et al 1995). FL-labeled reference peptides were synthesized as Cys-derivative (van der Burg S H et al 1995). Fluorescence labeled reference peptides used were: YLEPAC(FL)AK (SEQ ID NO: 87) (HLA-A*0101) and KVFPC(FL)ALINK (SEQ ID NO: 88) (HLA-A*1101) (Sette A et al), KVFPC(FL)ALINK (SEQ ID NO: 89) (HLAA*0301) (van der Burg S H et al 1995) and RYLKC(FL)QQLL (SEQ ID NO: 90) (A*2401) (Dai L C et al). B-cell lines used are: CAA (A*0101), EKR (A*0301), BVR (A*1101), VIJF (A*2401). The relative binding capacity of the peptides is expressed as the peptide concentration to inhibit 50% (1050) of the binding of the reference peptide. […] Peptide stabilization for HLA-A*0201 was performed as previously described (van der Burg S H et al, 1996). Peptides of >50% of the initial complexes was lost within 2 hours were considered unstable. Stability of other peptide-HLA complexes was determined as follows. Peptide binding was performed at 4° C. and 20° C. and 1050 were determined. […] The rest was designated as unstable peptide binding.

HLA-A*2401 [9] = assay: Competition based cellular binding assay, HLA-A*2401 (B-cell line VIJF); parameters: species or system human; details: for HLA binding Affinity (Table 5): HLA type A24; for Peptide Binding Affinity: HLA-A*2401, IC50 category

Peptide Binding Affinity (HLA-A*0301 [3]) | Peptide Binding Affinity (HLA-A*1101 [5]) | SMILES | Proteasomal Cleavage of C-terminus, HH (HeLa) [1] | Peptide Binding Stability (HLA-A*1101 [2]) | Proteasomal Cleavage of C-terminus, IP (RMA) [4] | Peptide Binding Stability (HLA-A*0301 [6]) | Proteasomal Cleavage of C-terminus, IP (JY) [7] | HLA binding Stability (Table 5) (HLA-A*2401 [8]) | Peptide Binding Stability (HLA-A*2401 [8]) | HLA binding Affinity (Table 5) (HLA-A*2401 [9]) | Peptide Binding Affinity (HLA-A*2401 [9])
high | high | CSCC[C@H](NC(=O)[C@@H](N)CCCCN)C(=O)N[C@@H](Cc1ccccc1)C(=O)N[C@@H](CS)C(=O)N[C@@H](CCC(N)=O)C(=O)N[C@@H](CC(C)C)C(=O)N[C@@H](C)C(=O)N[C@@H](CCCCN)C(=O)O [p53 132-139] | + (Major cleavage sites are defined as more than >1% of total digested peptide within the first hour) | + (Stable peptides displayed IC50 at 20 °C that deviated <2 times of the IC50 at 4° C.) | + (Major cleavage sites are defined as more than >1% of total digested peptide within the first hour) | + (Stable peptides displayed IC50 at 20 °C that deviated <2 times of the IC50 at 4° C.) | + (Major cleavage sites are defined as more than >1% of total digested peptide within the first hour) |  |  |  | 
 |  | CSCC[C@H](N)C(=O)N[C@@H](Cc1ccccc1)C(=O)N[C@@H](CCCNC(=N)N)C(=O)N[C@@H](CCC(=O)O)C(=O)N[C@@H](CC(C)C)C(=O)N[C@@H](CC(N)=O)C(=O)N[C@@H](CCC(=O)O)C(=O)N[C@@H](C)C(=O)N[C@@H](CC(C)C)C(=O)O [p53 340-348, MFRELNEAL] |  |  |  |  |  | +/− (Peptides that displayed IC50 at 20 °C of more than twice the IC50 at 4 °C but IC50 < 15 μM were considered to bind with intermediate stability.) | +/− (Peptides that displayed IC50 at 20 °C of more than twice the IC50 at 4 °C but IC50 < 15 μM were considered to bind with intermediate stability.) | high | high
 |  | CC(C)C[C@H](NC(=O)[C@H](CC(C)C)NC(=O)[C@H](CCCCN)NC(=O)[C@H](Cc1c[nH]c2ccccc12)NC(=O)[C@H](CC(C)C)NC(=O)[C@H](CC(=O)O)NC(=O)[C@H](CO)NC(=O)[C@H](Cc1ccccc1)NC(=O)[C@@H](N)[C@@H](C)O)C(=O)O [p53 18-26] | + (Major cleavage sites are defined as more than >1% of total digested peptide within the first hour) |  | + (Major cleavage sites are defined as more than >1% of total digested peptide within the first hour) |  | + (Major cleavage sites are defined as more than >1% of total digested peptide within the first hour) |  | + (Stable peptides displayed IC50 at 20 °C that deviated <2 times of the IC50 at 4° C.) |  | high
 |  | CC(C)C[C@H](NC(=O)[C@H](CCCNC(=N)N)NC(=O)[C@H](Cc1ccccc1)NC(=O)CNC(=O)[C@H](Cc1ccc(O)cc1)NC(=O)[C@H](CO)NC(=O)CNC(=O)[C@H](CCC(N)=O)NC(=O)[C@H](Cc1ccc(O)cc1)NC(=O)[C@@H](N)[C@@H](C)O)C(=O)O [p53 102-111] | + (Major cleavage sites are defined as more than >1% of total digested peptide within the first hour) |  | + (Major cleavage sites are defined as more than >1% of total digested peptide within the first hour) |  | + (Major cleavage sites are defined as more than >1% of total digested peptide within the first hour) |  | + (Stable peptides displayed IC50 at 20 °C that deviated <2 times of the IC50 at 4° C.) |  | high
 |  | CC(C)C[C@H](NC(=O)[C@H](Cc1ccc(O)cc1)NC(=O)[C@@H](N)CCC(=O)O)C(=O)N[C@@H](CC(=O)O)C(=O)N[C@@H](CC(=O)O)C(=O)N[C@@H](CCCNC(=N)N)C(=O)N[C@@H](CC(N)=O)C(=O)N[C@H](C(=O)N[C@@H](Cc1ccccc1)C(=O)O)[C@@H](C)O [p53 204-212] |  |  |  |  |  | + (Stable peptides displayed IC50 at 20 °C that deviated <2 times of the IC50 at 4° C.) | + (Stable peptides displayed IC50 at 20 °C that deviated <2 times of the IC50 at 4° C.) | high | high
 |  | CC(C)C[C@H](NC(=O)[C@H](Cc1ccccc1)NC(=O)CNC(=O)[C@H](CC(C)C)NC(=O)[C@H](CCCNC(=N)N)NC(=O)[C@H](Cc1ccccc1)NC(=O)CNC(=O)[C@H](Cc1ccc(O)cc1)NC(=O)[C@@H](N)CO)C(=O)O [p53 106-114] | + (Major cleavage sites are defined as more than >1% of total digested peptide within the first hour) |  | + (Major cleavage sites are defined as more than >1% of total digested peptide within the first hour) |  | + (Major cleavage sites are defined as more than >1% of total digested peptide within the first hour) | +/− (Peptides that displayed IC50 at 20 °C of more than twice the IC50 at 4 °C but IC50 < 15 μM were considered to bind with intermediate stability.) | +/− (Peptides that displayed IC50 at 20 °C of more than twice the IC50 at 4 °C but IC50 < 15 μM were considered to bind with intermediate stability.) | high | high
 |  | CC(C)C[C@H](NC(=O)[C@H](CCCNC(=N)N)NC(=O)[C@H](Cc1ccccc1)NC(=O)CNC(=O)[C@H](Cc1ccc(O)cc1)NC(=O)[C@@H](N)CO)C(=O)NCC(=O)N[C@@H](Cc1ccccc1)C(=O)O [p53 106-113] | + (Major cleavage sites are defined as more than >1% of total digested peptide within the first hour) |  | + (Major cleavage sites are defined as more than >1% of total digested peptide within the first hour) |  | + (Major cleavage sites are defined as more than >1% of total digested peptide within the first hour) |  | + (Stable peptides displayed IC50 at 20 °C that deviated <2 times of the IC50 at 4° C.) |  | high
